# According to patent US6846492B2, “Use of phenylethylamine derivatives for the antimicrobial treatment of surfaces” (Ciba Specialty Chemicals Corporation, priority 2000, dated 2005):
# Test system: Candida albicans ATCC 10231 (= CA)
# Experiment: MIC determination in microtiter plates, Candida albicans
# Format: cell-based
# Conditions: Tables 2a/2b, 48 hours at 37° C., ≦20% growth, optical density 620 nm, some approximate values
# Method: (§1) Determination of the Minimum Inhibitory Concentration (MIC Value) in Microtiter Plates
# (§2) Casein/soybean flour peptone bouillon for the preparation of pre-cultures of the test bacteria and yeast.
# (§3) Mycological slant agar for the pre-culture of moulds
# (§4) The test substances are pre-dissolved in dimethyl sulfoxide (DMSO) and tested in a dilution series of 1:2.
# (§5) Bacteria and yeast are cultured overnight in CASO bouillon, the mould is cultured overnight on mycological slant agar, and washed off with 10 ml of 0.85% sodium chloride solution (+0.1% TritonX-100).
# (§6) All the test organisms are adjusted to an organism count of 1−5×10^6 CFU/ml using 0.85% sodium chloride solution.
# (§7) The test substances are pre-pipetted into microtiter plates in an amount of 8 μl per well.
# (§8) Pre-diluted organism suspensions are diluted 1:100 in CASO bouillon (bacteria and yeast) or Sabouraud 2% glucose bouillon (mould) and are added in an amount of 192 μl per well to the test substances.
# (§9) The test batches are incubated for 48 hours at 37° C. (bacteria and yeast) or for 5 days at 28° C. (mould).
# (§10) After incubation, the growth is evaluated by reference to the turbidity of the test batches (optical density) at 620 nm in a microplate reader.
# (§11) One microtiter plate is used for each test organism and substance concentration. All the substances are tested in duplicate.
row,SMILES,MIC [ppm] CA [ppm]
1,CC(C)(C)c1ccc(COc2ccc(CCN)cc2OCc2ccc(C(C)(C)C)cc2)cc1 [Compound 18],60
2,C=CCCOc1cc(CCN)cc(OCCC=C)c1OCCC=C [Compound 94],120
3,NCCc1cc(OCc2ccccc2F)c(OCc2ccccc2F)c(OCc2ccccc2F)c1 [Compound 66],120
4,CC(C)CCOc1cc(CCN)cc(OCCC(C)C)c1OCCC(C)C [Compound 84],15
5,CCOC(=O)CCCOc1ccc(CCN)cc1OCCCC(=O)OCC [Compound 27],>120
6,CC(C)Oc1cc(CCN)cc(OC(C)C)c1OC(C)C [Compound 82],>120
7,NCCc1ccc(OC2CCCC2)c(OC2CCCC2)c1 [Compound 41],120
8,COC(=O)c1ccc(COc2cc(CCN)cc(OCc3ccc(C(=O)OC)cc3)c2OCc2ccc(C(=O)OC)cc2)cc1 [Compound 65],60
9,CCOC(=O)COc1ccc(CCN)cc1OCC(=O)OCC [Compound 22],>120
10,NCCc1ccc(OCc2cccc(C(F)(F)F)c2)c(OCc2cccc(C(F)(F)F)c2)c1 [Compound 9],7.5
11,CCCCCCCCCOc1ccc(CCN)cc1OCCCCCCCCC [Compound 39],>120
12,CCCCCCCCOc1ccc(CCN)cc1OCCCCCCCC [Compound 38],>120
13,C=CCCCOc1ccc(CCN)cc1OCCCC=C [Compound 44],60
14,NCCc1cc(OC2CCCC2)c(OC2CCCC2)c(OC2CCCC2)c1 [Compound 92],60
15,CCCCOc1ccc(CCN)cc1OCCCC [Compound 30],120
16,NCCc1cc(OCc2ccc3ccccc3c2)c(OCc2ccc3ccccc3c2)c(OCc2ccc3ccccc3c2)c1 [Compound 71],>120
17,CC(C)Oc1ccc(CCN)cc1OC(C)C [Compound 31],>120

# Test system: Escherichia coli NCTC 8196 (= EC)
# Experiment: MIC determination in microtiter plates, Escherichia coli
# Format: cell-based
# Conditions: Tables 2a/2b, 48 hours at 37° C., ≦20% growth, optical density 620 nm, some approximate values
# Method: as §1, §2, §3, §4, §5, §6, §7, §8, §9, §10, §11
row,SMILES,MIC [ppm] EC [ppm]
1,CC(C)(C)c1ccc(COc2ccc(CCN)cc2OCc2ccc(C(C)(C)C)cc2)cc1 [Compound 18],>60
2,C=CCCOc1cc(CCN)cc(OCCC=C)c1OCCC=C [Compound 94],60
3,NCCc1cc(OCc2ccccc2F)c(OCc2ccccc2F)c(OCc2ccccc2F)c1 [Compound 66],15
4,CC(C)CCOc1cc(CCN)cc(OCCC(C)C)c1OCCC(C)C [Compound 84],7.5
5,CCOC(=O)CCCOc1ccc(CCN)cc1OCCCC(=O)OCC [Compound 27],>120
6,CC(C)Oc1cc(CCN)cc(OC(C)C)c1OC(C)C [Compound 82],>120
7,NCCc1ccc(OC2CCCC2)c(OC2CCCC2)c1 [Compound 41],120
8,COC(=O)c1ccc(COc2cc(CCN)cc(OCc3ccc(C(=O)OC)cc3)c2OCc2ccc(C(=O)OC)cc2)cc1 [Compound 65],>120
9,CCOC(=O)COc1ccc(CCN)cc1OCC(=O)OCC [Compound 22],>120
10,NCCc1ccc(OCc2cccc(C(F)(F)F)c2)c(OCc2cccc(C(F)(F)F)c2)c1 [Compound 9],3.75
11,CCCCCCCCCOc1ccc(CCN)cc1OCCCCCCCCC [Compound 39],>120
12,CCCCCCCCOc1ccc(CCN)cc1OCCCCCCCC [Compound 38],>120
13,C=CCCCOc1ccc(CCN)cc1OCCCC=C [Compound 44],60
14,NCCc1cc(OC2CCCC2)c(OC2CCCC2)c(OC2CCCC2)c1 [Compound 92],15
15,CCCCOc1ccc(CCN)cc1OCCCC [Compound 30],120
16,NCCc1cc(OCc2ccc3ccccc3c2)c(OCc2ccc3ccccc3c2)c(OCc2ccc3ccccc3c2)c1 [Compound 71],>120
17,CC(C)Oc1ccc(CCN)cc1OC(C)C [Compound 31],>120

# Test system: Pseudomonas aeruginosa CIP A-22 (= PA)
# Experiment: MIC determination in microtiter plates, Pseudomonas aeruginosa
# Format: cell-based
# Conditions: Tables 2a/2b, 48 hours at 37° C., ≦20% growth, optical density 620 nm, some approximate values
# Method: as §1, §2, §3, §4, §5, §6, §7, §8, §9, §10, §11
row,SMILES,MIC [ppm] PA [ppm]
1,CC(C)(C)c1ccc(COc2ccc(CCN)cc2OCc2ccc(C(C)(C)C)cc2)cc1 [Compound 18],>120
2,C=CCCOc1cc(CCN)cc(OCCC=C)c1OCCC=C [Compound 94],>120
3,NCCc1cc(OCc2ccccc2F)c(OCc2ccccc2F)c(OCc2ccccc2F)c1 [Compound 66],>120
4,CC(C)CCOc1cc(CCN)cc(OCCC(C)C)c1OCCC(C)C [Compound 84],>120
5,CCOC(=O)CCCOc1ccc(CCN)cc1OCCCC(=O)OCC [Compound 27],>120
6,CC(C)Oc1cc(CCN)cc(OC(C)C)c1OC(C)C [Compound 82],>120
7,NCCc1ccc(OC2CCCC2)c(OC2CCCC2)c1 [Compound 41],>120
8,COC(=O)c1ccc(COc2cc(CCN)cc(OCc3ccc(C(=O)OC)cc3)c2OCc2ccc(C(=O)OC)cc2)cc1 [Compound 65],>120
9,CCOC(=O)COc1ccc(CCN)cc1OCC(=O)OCC [Compound 22],>120
10,NCCc1ccc(OCc2cccc(C(F)(F)F)c2)c(OCc2cccc(C(F)(F)F)c2)c1 [Compound 9],>120
11,CCCCCCCCCOc1ccc(CCN)cc1OCCCCCCCCC [Compound 39],>120
12,CCCCCCCCOc1ccc(CCN)cc1OCCCCCCCC [Compound 38],>120
13,C=CCCCOc1ccc(CCN)cc1OCCCC=C [Compound 44],>120
14,NCCc1cc(OC2CCCC2)c(OC2CCCC2)c(OC2CCCC2)c1 [Compound 92],>120
15,CCCCOc1ccc(CCN)cc1OCCCC [Compound 30],>120
16,NCCc1cc(OCc2ccc3ccccc3c2)c(OCc2ccc3ccccc3c2)c(OCc2ccc3ccccc3c2)c1 [Compound 71],>120
17,CC(C)Oc1ccc(CCN)cc1OC(C)C [Compound 31],>120

# Test system: Aspergillus niger ATCC 6275 (= AN)
# Experiment: MIC determination in microtiter plates, Aspergillus niger
# Format: cell-based
# Conditions: Tables 2a/2b, 5 days at 28° C., ≦20% growth, optical density 620 nm, some approximate values
# Method: as §1, §2, §3, §4, §5, §6, §7, §8, §9, §10, §11
row,SMILES,MIC [ppm] AN [ppm]
1,CC(C)(C)c1ccc(COc2ccc(CCN)cc2OCc2ccc(C(C)(C)C)cc2)cc1 [Compound 18],>120
2,C=CCCOc1cc(CCN)cc(OCCC=C)c1OCCC=C [Compound 94],>120
3,NCCc1cc(OCc2ccccc2F)c(OCc2ccccc2F)c(OCc2ccccc2F)c1 [Compound 66],>120
4,CC(C)CCOc1cc(CCN)cc(OCCC(C)C)c1OCCC(C)C [Compound 84],15
5,CCOC(=O)CCCOc1ccc(CCN)cc1OCCCC(=O)OCC [Compound 27],>120
6,CC(C)Oc1cc(CCN)cc(OC(C)C)c1OC(C)C [Compound 82],>120
7,NCCc1ccc(OC2CCCC2)c(OC2CCCC2)c1 [Compound 41],>120
8,COC(=O)c1ccc(COc2cc(CCN)cc(OCc3ccc(C(=O)OC)cc3)c2OCc2ccc(C(=O)OC)cc2)cc1 [Compound 65],>120
9,CCOC(=O)COc1ccc(CCN)cc1OCC(=O)OCC [Compound 22],>120
10,NCCc1ccc(OCc2cccc(C(F)(F)F)c2)c(OCc2cccc(C(F)(F)F)c2)c1 [Compound 9],>120
11,CCCCCCCCCOc1ccc(CCN)cc1OCCCCCCCCC [Compound 39],>120
12,CCCCCCCCOc1ccc(CCN)cc1OCCCCCCCC [Compound 38],>120
13,C=CCCCOc1ccc(CCN)cc1OCCCC=C [Compound 44],>120
14,NCCc1cc(OC2CCCC2)c(OC2CCCC2)c(OC2CCCC2)c1 [Compound 92],120
15,CCCCOc1ccc(CCN)cc1OCCCC [Compound 30],>120
16,NCCc1cc(OCc2ccc3ccccc3c2)c(OCc2ccc3ccccc3c2)c(OCc2ccc3ccccc3c2)c1 [Compound 71],>120
17,CC(C)Oc1ccc(CCN)cc1OC(C)C [Compound 31],>120

# Test system: Staphylococcus hominis DMS 20328 (= SH)
# Experiment: MIC determination in microtiter plates, Staphylococcus hominis
# Format: cell-based
# Conditions: Tables 2a/2b, 48 hours at 37° C., ≦20% growth, optical density 620 nm, tested at 120, 60, 30, 15, 7.5 and 3.5 ppm, some approximate
# Method: as §1, §2, §3, §4, §5, §6, §7, §8, §9, §10, §11
row,SMILES,MIC [ppm] SH [ppm]
1,CC(C)(C)c1ccc(COc2ccc(CCN)cc2OCc2ccc(C(C)(C)C)cc2)cc1 [Compound 18],1.9
2,C=CCCOc1cc(CCN)cc(OCCC=C)c1OCCC=C [Compound 94],60
3,NCCc1cc(OCc2ccccc2F)c(OCc2ccccc2F)c(OCc2ccccc2F)c1 [Compound 66],15
4,CC(C)CCOc1cc(CCN)cc(OCCC(C)C)c1OCCC(C)C [Compound 84],3.75
5,CCOC(=O)CCCOc1ccc(CCN)cc1OCCCC(=O)OCC [Compound 27],>120
6,CC(C)Oc1cc(CCN)cc(OC(C)C)c1OC(C)C [Compound 82],>120
7,NCCc1ccc(OC2CCCC2)c(OC2CCCC2)c1 [Compound 41],120
8,COC(=O)c1ccc(COc2cc(CCN)cc(OCc3ccc(C(=O)OC)cc3)c2OCc2ccc(C(=O)OC)cc2)cc1 [Compound 65],15
9,CCOC(=O)COc1ccc(CCN)cc1OCC(=O)OCC [Compound 22],>120
10,NCCc1ccc(OCc2cccc(C(F)(F)F)c2)c(OCc2cccc(C(F)(F)F)c2)c1 [Compound 9],3.75
11,CCCCCCCCCOc1ccc(CCN)cc1OCCCCCCCCC [Compound 39],60
12,CCCCCCCCOc1ccc(CCN)cc1OCCCCCCCC [Compound 38],7.5
13,C=CCCCOc1ccc(CCN)cc1OCCCC=C [Compound 44],60
14,NCCc1cc(OC2CCCC2)c(OC2CCCC2)c(OC2CCCC2)c1 [Compound 92],15
15,CCCCOc1ccc(CCN)cc1OCCCC [Compound 30],120
16,NCCc1cc(OCc2ccc3ccccc3c2)c(OCc2ccc3ccccc3c2)c(OCc2ccc3ccccc3c2)c1 [Compound 71],>120
17,CC(C)Oc1ccc(CCN)cc1OC(C)C [Compound 31],>120
